From patent publication US20080096989A1, “Flame Retardant Expanded Polystyrene Foam Compositions” (ALBEMARLE CORPORATION, priority 2004, published 2008)

Experiment: Thermal HBr Measurement Test (thermal stability)
Format: physicochemical
Details: heated about 15 minutes at about 220° C. under nitrogen; average of duplicate; lower = more thermally stable
Experimental: The thermal stability of N,2-3-dibromopropyl-4,5-dibromohexahydrophthalimde (“compound (I)”) used in accordance with the present invention was evaluated using the Thermal HBr Measurement Test.
First, a sample of from about 0.5 to about 1.0 g flame retardant was weighed into a three neck 50 mL round bottom flask. Teflon tubing was then attached to one of the openings in the flask. Nitrogen was fed into the flask through the Teflon tubing at a flow rate of about 0.5 SCFH. A small reflux condenser was attached to another opening on the flask. The third opening was plugged. An about 50 vol % solution of glycol in water at a temperature of about 85° C. was run through the reflux condenser. Viton tubing was attached to the top of the condenser and to a gas-scrubbing bottle. Two more bottles were attached in series to the first. All three bottles had about 90 mL of about 0.1 N NaOH solutions. After assembling the apparatus, the nitrogen was allowed to purge through the system for about 2 minutes. The round bottom flask was then placed into an oil bath at about 220° C. and the sample was heated for about 15 minutes. The flask was then removed from the oil bath and the nitrogen was allowed to purge for about 2 minutes. The contents of the three gas scrubbing bottles were transferred to a 600 mL beaker. The bottles and viton tubing were rinsed into the beaker. […]

## O=C1C2CC(Br)C(Br)CC2C(=O)N1CC(Br)CBr (stereo not shown) [compound I, N,2-3-dibromopropyl-4,5-dibromohexahydrophthalimde]
  HBr (ppm): 2,058 ppm
